Results published in patent US20240150286A1, “PEROXISOME PROLIFERATOR-ACTIVATED RECEPTOR GAMMA (PPARy) LIGANDS AND METHODS OF USE AS TREATMENTS FOR INSULIN RESISTANCE, OBESITY, FATTY LIVER DISEASE, AND TYPE 2 DIABETES” (The Board of Regents of the University of Oklahoma, priority 2022, published 2024).

Tests used:
[1] = test system: diet-induced obesity (DIO) mice; assay: Glucose tolerance, insulin tolerance and serum biochemistry in DIO mice; assay type: in vivo, mouse
Procedure: (§1) C57BL/6J male mice were obtained from Jackson laboratory (Bar Harbor, ME) and maintained on a 12 h light (6:00 AM to 6:00 PM)—12 h dark (6:00 PM to 6:00 AM) cycle at an ambient temperature of 22±1° C. All animals had access to diet and water ad libitum. All procedures involving animals were approved by the Institutional Animal Care and Use Committee of the University of Oklahoma Health Science Center. All experiments were performed with age-matched male mice. The mice were fed a high-fat diet (HFD) (60% kcal fat, Bio-Serv, NJ, USA) starting from the age of 6 weeks until study end. […] Food intake was determined manually by measuring the amount of input food subtracting the amount of the food remaining in the food hopper and the crumbs on the bedding of the cage each day for three days during the 4th week of the treatment. Packed cell volume (PCV) was measured with blood drawn from tail on a LW Scientific E8 centrifuge (LW Scientific, Lawrenceville, Georgia, USA) microhematocrit centrifuge at the end of study. For all other measurements, the blood was drawn at the time of euthanization.
Intraperitoneal glucose tolerance test (ipGTT) was performed after 6-h fasting. Blood glucose levels were measured at 0, 15, 30, 60, and 120 min glucometer (OneTouch Ultra 2 Meter) after an intraperitoneal administration of glucose at dose of 1.5 g/kg body weight. Intraperitoneal insulin tolerance test (ipITT) was performed after 6 h fasting. Blood glucose levels were measured at 0, 15, 30, 60, and 120 min after an intraperitoneal administration of human insulin at dose of 1.2 IU/kg body weight.
Serum insulin (ALPCO, NH, USA), serum cholesterol TG (Cayman Chem., MI, USA) and FFAs (Bioassay system, CA, USA) were determined by ELISA.

human PPARγ2 = biological target: T1, human PPARγ2 (Homo sapiens, UniProt P37231); assay: PPARγ transactivation reporter assay (3×PPRE-luc) in HEK-293 cells; assay type: cell-based
T1 construct: host or cells: HEK-293
T1 sequence (P37231 1-505): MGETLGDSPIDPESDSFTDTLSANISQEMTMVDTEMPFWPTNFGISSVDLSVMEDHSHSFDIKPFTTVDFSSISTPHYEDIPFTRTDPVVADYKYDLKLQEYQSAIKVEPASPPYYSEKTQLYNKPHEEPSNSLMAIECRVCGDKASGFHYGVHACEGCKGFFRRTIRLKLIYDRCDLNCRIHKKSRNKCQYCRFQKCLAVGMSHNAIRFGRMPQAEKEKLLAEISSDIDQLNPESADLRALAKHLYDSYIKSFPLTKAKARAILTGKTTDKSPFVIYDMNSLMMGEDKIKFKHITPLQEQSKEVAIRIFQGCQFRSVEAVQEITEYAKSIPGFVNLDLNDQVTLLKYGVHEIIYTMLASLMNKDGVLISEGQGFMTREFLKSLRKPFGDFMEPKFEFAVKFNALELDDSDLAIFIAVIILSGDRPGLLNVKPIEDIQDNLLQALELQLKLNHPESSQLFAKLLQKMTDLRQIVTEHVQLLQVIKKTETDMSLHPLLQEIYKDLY
Procedure: HEK-293 cells were seeded overnight, co-transfected with plasmids expressing human PPARγ2 and 3×PPRE-luc (both from Addgene) followed by incubation for 16 h, and then re-seeded in a 384-well plate and incubated for 24 h. Compounds were added and then incubated another 24 h. Luciferase activity was analyzed in each well using Bright-Glo Luciferase kit (Promega).

[2] = test system: diet-induced obesity (DIO) mice; assay: TZD-associated side effects in DIO mice (PCV, heart weight, cardiac and bone genes); assay type: in vivo, mouse
Procedure: as §1
(§2) Total RNA (2 μg) was isolated from tissues or cells using TRIzol reagents (Life Technologies) and reverse transcribed using oligo d(T) primers (New England Biosystems) and SuperScript IV reverse transcription kit (Applied Biosystems). qPCR was performed in a CFX96 Touch Real-Time PCR detection system using SYBR Green mix (Applied Biosystems). The amplification program was as follows: initial denaturation at 95° C. for 15 min, followed by 40 cycles of 95° C. for 15 s, 60° C. for 1 min, and 40° C. for 30 s. Relative mRNA expression was determined by the ΔΔCt method normalized to TBP mRNA.

3T3-L1 cells = assay: 3T3-L1 adipocyte differentiation (Oil Red O staining, adipogenic gene mRNA); assay type: cell-based, mouse
Procedure: 3T3-L1 preadipocytes were differentiated. In brief, cells at around 60%-70% confluence were induced for differentiation with DMEM containing 10% FBS, 1 μg/ml insulin, 1 μM dexamethasone, and 0.5 mM IBMX for 48 h in the presence or absence of compounds and were then exposed in maintenance medium (1 μg/mL insulin in 10% FBS/DMEM) containing compounds. The medium was renewed every 2 days for total 8 days of differentiation when the cells became differentiated and lipid droplets were apparent. For primary preadipocyte differentiation, isolation of primary preadipocytes was performed. Briefly, fat depots were digested in PBS containing collagenase D (1.5 U/ml) at 37° C. for 40-45 min. The primary cells were filtered through 70 μm cell strainer and centrifuge at 700 g to collect stromal vascular fraction (SVF). The SVF cell pellets were plated on collagen coated plates. […]
as §2, with “The amplification program was as follows: initial denaturation at 95° C. for 15 min, followed by 40 cycles of 95° C. for 15 s, 60° C. for 1 min, and 40° C. for 30 s.” left out, “mRNA. […]” for “mRNA.”

- 3×PPRE-luc reporter activity as % of potency of Rosi (human PPARγ2; HEK293, PPARγ2 + 3×PPRE-luc, relative to Rosi): ~15%
- 3×PPRE-luc reporter activity as % of potency of UHC1 (human PPARγ2; HEK293, PPARγ2 + 3×PPRE-luc, relative to UHC1): ~33%
SMILES: Cc1c(C)n(Cc2ccc(-c3ccccc3C(=O)O)cc2)c2ccc(C(=O)NCc3cccc(O)c3)cc12 [WO95E, 4′-((5-((3-hydroxybenzyl)carbamoyl)-2,3-dimethyl-1H-indol-1-yl)methyl)-[1,1′-biphenyl]-2-carboxylic acid]
- serum level of free fatty acid ([1]; 15 mg/kg i.p. daily 4 weeks): decreased
- total serum cholesterol ([1]; 15 mg/kg i.p. daily 4 weeks): downward trend but did not reach statistically significant
- triglyceride level ([1]; 15 mg/kg i.p. daily 4 weeks, data not shown): unchanged
- glucose tolerance (ipGTT, peak glucose and AUC) ([1]; 15 mg/kg i.p. daily, 2 weeks, vs vehicle): significantly improved
- insulin sensitivity (ipITT) ([1]; 15 mg/kg i.p. daily, 2.5 weeks, vs vehicle): enhanced
- fasting and refeeding plasma levels of insulin ([1]; 15 mg/kg i.p. daily, vs vehicle): markedly decreased
- PPARγ transactivation reporter activation (in words) (human PPARγ2; HEK293, PPARγ2 + 3×PPRE-luc): increased the reporter activity only weakly
- 3×PPRE reporter activation with GW9662 co-treatment (human PPARγ2; compound 10 μM, GW9662 5 μM, HEK293): retained its moderate ability to activate the reporter
- mRNA levels of bone formation genes (Bglap, SPP1, ColA1) ([2]; 4-week treatment): no apparent effect
- packed-cell volume (PCV) ([2]; indicator of hemodilution): unchanged
- heart weight ([2]; relative to vehicle): no effect
- mRNA levels of Myh7 and Nppb in heart ([2]; vs vehicle): not significantly altered or even lowered
- mRNA levels of adipogenic genes PPARγ, FABP4, Glut4, PEPCK, C/EBPa (3T3-L1 cells; 3T3-L1, compounds at 10 μM, qRT-PCR): only minimally or moderately increased
- Oil Red O staining / adipocyte differentiation (3T3-L1 cells; 3T3-L1, differentiation media, compounds at 10 μM): only marginally increased Oil Red O staining level
